Test results from patent US8815813B2, “Methods for treating immune-mediated Dengue Fever infections and antibody-dependent enhancement of Dengue Fever infections, including Dengue Hemorrhagic Fever and Dengue Shock Syndrome” (priority 2008, dated 2014).
Where two headings read alike, the source gives them in different places. No end group written: not given here.

Assays:
FcγIIb = assay type: binding
FcγIIIa = assay type: binding
human C1q = experiment: Reverse ELISA: inhibition of PAP immune complex binding to C1q coated plates
Fcγ1 = assay type: binding
FcγIIa (H131 allele) = assay type: binding
recombinant TNF-α = assay type: binding
[1] = system: Dengue Virus recombinant NS1; assay type: binding; conditions: summary of Table 6
Method: PAP IC were incubated with either no peptide or with SEQ ID NO:20 for one hour.

FcγIIIb (NA2) = assay type: binding
Sequence of FcγIIIb (NA2) (O75015 17-200): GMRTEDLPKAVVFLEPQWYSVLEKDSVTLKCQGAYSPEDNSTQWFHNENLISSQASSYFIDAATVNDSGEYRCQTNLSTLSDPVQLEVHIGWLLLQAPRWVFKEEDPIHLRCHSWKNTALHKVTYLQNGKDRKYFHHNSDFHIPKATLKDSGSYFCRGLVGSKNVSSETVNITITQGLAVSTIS

FcγIIb/c = assay type: binding
recombinant human FcγIIa = assay type: binding
Method: The results of 1:250 and 1:500 serial dilutions (ADE was most evident at serum dilutions of 1:250 to 1:500) of the DENV-IgG-IC were tested against inhibition of DENV-IgG-IC binding to huFcγRIIa coated microtiter wells. Results using huFcγRIIa coated wells with either a 1:250 dilution of DENV-IgG-IC with no inhibitor, a 1:250 dilution of DENV-IgG-IC with SEQ ID NO:20, a 1:500 dilution of DENV-IgG-IC with no inhibitor, and a 1:500 dilution of DENV-IgG-IC with SEQ ID NO:20 are shown in Table 5.

FcγIIa (R131 allele) = experiment: Reverse ELISA: inhibition of PAP-IC binding to FcγIIa (R131 allele) coated plates; conditions: PAP pre-incubated with peptide 1 h; positive control 1.599

Row | Substance | OD405 FcγIIb (FcγIIb) | OD405 FcγIIIa (FcγIIIa) | inhibition of C1q binding (ranking in words) (human C1q) | other results
1 | APPCAFHLGELVWCT (cysteine pairing not given here) [SEQ ID NO:18] | 0.380 | 0.880 | – | –
2 | APPCARHLGELVWCT (cysteine pairing not given here) [SEQ ID NO:16] | 0.768 | 0.709 | next best result | –
3 | APPCAWHLGELVWCT (cysteine pairing not given here) [SEQ ID NO:14] | 0.562 | 0.530 | – | –
4 | Ala-Pro-Pro-Asp-Cys-Ala-Trp-His-Leu-Gly-Glu-Leu-Val-Trp-Cys-Thr [SEQ ID NO:20] | 0.496 | 0.670 | greatest inhibition of C1q binding | % inhibition of IC binding, Fcγ1 (Fcγ1): 89%; Fcγ1 (read at 405 nm) (Fcγ1): 0.264; FcγIIa* (H131 allele) (read at 405 nm) (FcγIIa (H131 allele)): 0.209; OD405 (recombinant TNF-α): 0.086; inhibition of PAP-IC binding to recombinant TNFα coated plates (in words) (recombinant TNF-α): marked ability to inhibit the binding; inhibition of PAP-IC binding to recombinant DENV NS1 coated plates (in words) [1]: marked ability to inhibit the binding; % inhibition of IC binding, FcγIIIb (NA2) (FcγIIIb (NA2)): 91%; FcγIIIb (NA2) (read at 405 nm) (FcγIIIb (NA2)): 0.266; FcγIIb/c (read at 405 nm) (FcγIIb/c): 0.266; DENV-IgG-IC binding to huFcγRIIa coated wells (ELISA reading) (recombinant human FcγIIa; 1:250 dilution of DENV2 (16681)-DENV convalescent IgG-IC, no peptide control 2.885): 0.265; DENV-IgG-IC binding to huFcγRIIa coated wells (ELISA reading) (recombinant human FcγIIa; 1:500 dilution of DENV2 (16681)-DENV convalescent IgG-IC, no peptide control 2.362): 0.289; inhibition of DENV2-anti-DENV convalescent IgG-IC binding to FcγIIa coated plates (in words) (recombinant human FcγIIa; summary of Table 5): marked ability to inhibit binding
5 | Asp-Cys-Ala-Phe-His-Leu-Gly-Glu-Leu-Val-Trp-Cys-Thr [SEQ ID NO:3] | 0.510 | 0.810 | – | –
6 | Asp-Cys-Ala-Trp-His-Leu-Gly-Glu-Leu-Val-Trp-Cys-Thr [SEQ ID NO:2] | 0.532 | 0.741 | – | OD405 FcγIIa (R131 allele) (FcγIIa (R131 allele)): 0.561
